Data: US6413937B1, “Combinations for use in increasing the potency of a substrate for multidrug resistance related protein” (Dublin City University and Enterprise Ireland, priority 1996, dated 2002)
Each block holds one compound with its values, some of them ahead of it.

Key:
[1] = tested on: MRP-specific substrates; experiment: screen for enhancement of toxicity of MRP substrates by NSAIDs; assay type: cell-based; details: summary statements
[2] = tested on: GST prepared from DLKP cells; experiment: total GST assay with 1-chloro-2,4-dinitrobenzene; assay type: biochemical, human
Method: The other NSAIDs were tested in a total GST assay (Habig, W. H., and Jakoby, W. B., (1981); Methods Enzymol., 77: 218-231). Total cellular GST activity was assayed, using 1-chloro-2,4-dinitrobenzene as a substrate, according to the method of Habig, W. H., and Jakoby, W. B., (1981); supra. Due to spectrophotometric interference at 340 nm, caused by the majority of the NSAIDs, the assays were all performed at 360 nm, without any apparent effect on the rate of the control reaction The results are shown in Table 5.

[3] = tested on: A549 cell line; experiment: miniaturised in vitro colorimetric cell survival assay (acid phosphatase end-point), A549; assay type: cell-based, human
Method: (§1) All the results presented in this Example for the DLKP, A549 and OAW42-SR cell lines were derived using the same miniaturised in vitro calorimetric assay system. On Day 1 of the assay 1000 cells/well/100 μl were plated into 96-well plates. Cells were allowed to attach overnight and cell viability was visually assessed. […] NSAID plus chemotherapeutic drug) to be analysed were added onto the cells. The individual drugs were added separately in 50 μl quantities (4× stocks, to take into account the dilution effect of having 200 μl final volume in each well). The drugs were left on the cells for five further days (Day 7) and cell number was determined using the acid phosphatase end-point assay which uses p-nitrophenol phosphate as substrate (Martin, A. and Clynes, M. (1991) In Vitro Dev. Biol., 27A, 183-184). On Day 7 the culture medium was removed from the cells and they were washed once with phosphate buffered saline (PBS). […] After the incubation period 50 μl of 1N NaOH was added to each well to develop the colour. The plates were then read at 405 nm (reference 620 nm) on an ELISA plate-reader. […] All results are the cell survival means ±S.D. from a minimum of three experiments.

[4] = molecular target: T1, MRP pump (Homo sapiens, UniProt P33527); experiment: ATP-dependent transport of [3H]LTC4 into inside-out plasma membrane vesicles from HL60ADR cells; assay type: biochemical; details: for MRP-pump inhibitory activity: conclusion from Table 4
T1 construct: inside-out plasma membrane vesicles prepared from HL60ADR cells; endogenous in cells; host or cells: HL60ADR cells (plasma membrane vesicles)
Method: To determine if the NSAIDs were acting directly on the MRP pump the uptake of [^3H]LTC4 into inside-out plasma membrane vesicles prepared from HL60ADR cells was examined using a rapid filtration procedure (Ishikawa,T., et al. (1994); J. Biol. Chem. 269 (46); 29085-29093). ATP-dependent transport of [^3H]LTC4 into the membrane vesicles was measured by a rapid filtration method using a Millipore sampling manifold. The membrane vesicles were thawed at 37° C. before use and kept on ice. The reaction components consisted of 0.25 M sucrose/10 mM Tris.HCl pH 7.4/1 mM ATP/10 mM MgCl2/10 mM creatine phosphate/ 110 μg/ml creatine kinase and 10 nM [^3H]LTC4, with 50 μg of the inside-out vesicle preparation, in a final volume of 110 μl. This suspension was incubated at 37° C., with gentle mixing, and aliquots, 20 μl, were taken at the indicated points. Those aliquots were diluted in 1 ml of ice-cold incubation buffer before being applied to 0.22 μm Millipore GSWP nitrocellulose filters, pre-soaked in ice-cold incubation buffer, under suction. The filters were subsequently washed with 3 ml ice-cold incubation buffer, and absorbed radioactivity was measured using a scintillation counter (Beckman). In control experiments ATP was replaced with 5μ-AMP to determine the ATP-dependent transport.

[5] = tested on: DLKP cells; experiment: Example 5 miniaturised in vitro cell toxicity assay, DLKP; assay type: cell-based, human
Method: For the monolayer cell lines miniaturised in vitro assays were used to determine drug toxicity. On Day I cells were seeded at 1×10^3 cells/well in a 96-well plate and left to attach overnight. Drug was added on Day 2, and the assay was terminated on Day 7. Cell number was then evaluated by using one of two colorimetric end-point […]: the acid phosphatase assay (Martin, A., and Clynes, M. (1991); In vitro Cell and Development Biology, 27A: 183-184) or the crystal violet dye elution assay (Martin, A., and Clynes, M. (1993); Cytotechnology, 11:49-58). All assays were performed in triplicate.

[6] = tested on: DLKP cell line; experiment: miniaturised in vitro colorimetric cell survival assay (acid phosphatase end-point), DLKP; assay type: cell-based, human
Method: as §1

[7] = tested on: DLKP-7 cells; experiment: adriamycin efflux from loaded cells, HPLC; assay type: cell-based
Method: DLKP-7 cells were seeded into 75 cm^2 flasks at 0.5×10^6 cells/10 ml ATCC medium. The cells were left for 2 days, the ATCC medium was removed and fresh medium containing adriamycin (0.5 μg/ml) was added. Following a 2 hour incubation this medium was removed, the flasks were washed twice with PBS, 10 ml ATCC medium or ATCC medium containing the test NSAID was added, and the cells were incubated for a further 4 hr. The cells were trypsinised and the pellet was frozen at −20° C. Duplicate flasks for each time point were prepared. The NSAIDs used were indomethacin 10 μg/ml and piroxicam 20 μg/ml.
The amount of adriamycin in the cells was quantified using liquid-liquid extraction and reverse-phase HPLC analysis. The frozen cell pellets were thawed and resuspended in […] of water/100 μl of 33% silver nitrate and mixed for 5 min. 300 μl of methanol, containing 1.5 μg of daunorubicin as an internal standard (IS), and 1.3 ml of acetonitrile were then added and the tubes mixed for a further 5 min. The mixture was transferred to glass tubes and kept at 4° C. for 1 hr. The tubes were then centrifuged at 1000 g for 15 min. to pellet any solid material. 1.1 ml of the supernatant was removed to HPLC autosampler vials (Labquip, Dublin, Ireland). The solvent was evaporated off at room temperature under a stream of nitrogen gas.
The extract was resuspended in 50 μl of mobile phase 1 (MP1): 32 ml of 0.1 M phosphoric acid mixed with 244 ml of ultrapure water, pH: 2.3 (adjusted upwards with a few drops of 1N potassium hydroxide) to which 124 ml of acetonitrile was added and the final mixture was degassed in a sonicating bath for 5 min. The second mobile phase (MP2) consisted of acetonitrile. The resuspended sample (20 μl) was automatically injected into the HPLC system. The HPLC system comprised a Beckman System Gold 507 autosampler, 125 pump and 166 detector. The MP was pumped through a C18 reversed-phase Prodigy 5 μm particle size ODS-3 column (Phenomenex, Macclesfield, England) (dimensions 150×4.6mm) and absorbance was measured at 253 nm. For the first 14 min. of the chromatographic run MP 1 was pumped at 0.5 ml/min. From 14 min. to 20 min. the column was switched to MP 2. At 20 min. the column was switched back to MP 1 and the flow rate increased to 1 ml/min. At 30 min. the flow rate was brought back to 0.5 ml/min. The run continued for a further 5 min. giving a total run time of 35 min. The amount of adriamycin present was quantified by measuring its peak area and the peak area of the IS. The peak area of the adriamycin was divided by the area of the IS peak and the ratio plotted against a concentration series for spiked adriamycin samples.

T1 sequence (P33527 whole entry): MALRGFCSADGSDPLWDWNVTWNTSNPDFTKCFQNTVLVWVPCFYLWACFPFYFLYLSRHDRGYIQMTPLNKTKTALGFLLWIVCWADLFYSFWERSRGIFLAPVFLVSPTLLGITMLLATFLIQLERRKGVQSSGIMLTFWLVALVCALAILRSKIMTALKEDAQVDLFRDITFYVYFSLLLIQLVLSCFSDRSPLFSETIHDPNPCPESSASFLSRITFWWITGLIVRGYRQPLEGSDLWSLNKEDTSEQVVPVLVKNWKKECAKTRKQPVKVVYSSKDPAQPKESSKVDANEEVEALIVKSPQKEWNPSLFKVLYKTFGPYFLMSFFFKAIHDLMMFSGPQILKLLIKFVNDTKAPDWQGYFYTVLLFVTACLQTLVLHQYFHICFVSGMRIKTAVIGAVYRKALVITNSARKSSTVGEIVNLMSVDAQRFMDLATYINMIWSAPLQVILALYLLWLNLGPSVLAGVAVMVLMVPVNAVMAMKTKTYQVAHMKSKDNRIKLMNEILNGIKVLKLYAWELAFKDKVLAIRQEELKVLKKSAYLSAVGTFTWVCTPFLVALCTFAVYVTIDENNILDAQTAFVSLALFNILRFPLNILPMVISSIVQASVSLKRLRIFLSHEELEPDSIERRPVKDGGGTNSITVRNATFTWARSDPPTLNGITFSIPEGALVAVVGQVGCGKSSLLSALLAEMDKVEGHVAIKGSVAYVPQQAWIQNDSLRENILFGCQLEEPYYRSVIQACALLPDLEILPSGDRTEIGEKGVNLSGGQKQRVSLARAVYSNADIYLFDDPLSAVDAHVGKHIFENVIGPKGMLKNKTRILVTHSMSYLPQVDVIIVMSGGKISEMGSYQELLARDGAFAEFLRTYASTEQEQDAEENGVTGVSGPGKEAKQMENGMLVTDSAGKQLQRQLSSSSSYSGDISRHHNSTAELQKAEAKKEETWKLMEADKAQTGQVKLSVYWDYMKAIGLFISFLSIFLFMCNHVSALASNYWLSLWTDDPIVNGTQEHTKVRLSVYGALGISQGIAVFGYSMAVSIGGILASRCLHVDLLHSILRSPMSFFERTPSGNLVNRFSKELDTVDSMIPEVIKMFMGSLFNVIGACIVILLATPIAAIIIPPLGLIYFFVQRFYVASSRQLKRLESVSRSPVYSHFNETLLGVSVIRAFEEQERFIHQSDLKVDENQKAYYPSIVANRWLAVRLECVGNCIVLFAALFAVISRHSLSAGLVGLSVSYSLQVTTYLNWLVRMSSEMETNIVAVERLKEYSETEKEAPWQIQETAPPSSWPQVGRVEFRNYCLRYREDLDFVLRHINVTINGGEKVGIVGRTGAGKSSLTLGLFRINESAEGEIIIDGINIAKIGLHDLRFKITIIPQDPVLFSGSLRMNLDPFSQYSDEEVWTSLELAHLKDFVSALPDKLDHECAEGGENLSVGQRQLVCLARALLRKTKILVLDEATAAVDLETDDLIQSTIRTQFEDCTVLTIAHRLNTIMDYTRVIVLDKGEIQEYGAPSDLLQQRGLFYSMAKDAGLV

SMILES: COc1ccc2c(c1)c(CC(=O)OCC(=O)O)c(C)n2C(=O)c1ccc(Cl)cc1 [Acemetacin, acemetacin]
enhancement of toxicity of MRP substrates [1]: have been found to enhance the toxicity of MRP-specific substrates
% Inhibition of GST ([2]; 0.25 mM): 58%
% cell survival ([3]; viii) Acemetacin 11.50 μg/ml, alone or + Adriamycin 15 ng/ml): 102.08 ± 8.76%
% cell survival ([3]; viii) Acemetacin 19.20 μg/ml, alone or + Adriamycin 15 ng/ml): 97.30 ± 8.46%
% cell survival ([3]; viii) Acemetacin 37.50 μg/ml, alone or + Adriamycin 15 ng/ml): 85.04 ± 10.13%

SMILES: CSc1ccc(/C=C2/C(C)=C(CC(=O)O)c3cc(F)ccc32)cc1 [Sulindac sulfide, sulindac sulfide]
% cell survival ([3]; xii) Sulindac sulfide 1.40 μg/ml, alone or + Adriamycin 15 ng/ml): 105.83 ± 6.50%
% cell survival ([3]; xii) Sulindac sulfide 2.70 μg/ml, alone or + Adriamycin 15 ng/ml): 104.91 ± 5.57%
% cell survival ([3]; xii) Sulindac sulfide 6.00 μg/ml, alone or + Adriamycin 15 ng/ml): 90.19 ± 9.63%

SMILES: Cc1cccc(Nc2ccccc2C(=O)O)c1C [Mefenamic acid, mefenamic acid]
% cell survival ([3]; x) Mefenamic acid 2.30 μg/ml, alone or + Adriamycin 15 ng/ml): 98.49 ± 7.66%
% cell survival ([3]; x) Mefenamic acid 4.00 μg/ml, alone or + Adriamycin 15 ng/ml): 95.38 ± 9.21%
% cell survival ([3]; x) Mefenamic acid 7.90 μg/ml, alone or + Adriamycin 15 ng/ml): 85.23 ± 7.80%

SMILES: CCc1cccc2c3c([nH]c12)C(CC)(CC(=O)O)OCC3 (centres unmarked) [etodolac]
enhancement of toxicity of MRP substrates [1]: does not exhibit the enhanced cytotoxicity

SMILES: O=C(O)Cc1ccccc1Nc1c(Cl)cccc1Cl [Diclofenac]
% Inhibition of GST ([2]; 0.75 mM): 54%

SMILES: Cc1cc(CC(=O)O)n(C)c1C(=O)c1ccc(Cl)cc1 [Zomepirac, zomepirac]
enhancement of toxicity of MRP substrates [1]: have been found to enhance the toxicity of MRP-specific substrates
% Inhibition of GST ([2]; 0.25 mM): 56%
% cell survival ([3]; xv) Zomepirac 20.70 μg/ml, alone or + Adriamycin 15 ng/ml): 96.79 ± 12.10%
% cell survival ([3]; xv) Zomepirac 38.80 μg/ml, alone or + Adriamycin 15 ng/ml): 94.89 ± 13.91%

MRP-pump inhibitory activity [4]: do not
SMILES: COc1ccc2cc([C@H](C)C(=O)O)ccc2c1 [Naproxen]
% Inhibition of GST ([2]; 1 mM): 17%

SMILES: CC(C(=O)O)c1cccc(C(=O)c2ccccc2)c1 (centres unmarked) [Ketoprofen]
% Inhibition of GST ([2]; 1 mM): 11.2%

SMILES: CC(C(=O)O)c1cccc(Oc2ccccc2)c1 (centres unmarked) [Fenoprofen]
% Inhibition of GST ([2]; 1 mM): 22.5%

SMILES: c1ccc([C@H]2CN3CCSC3=N2)cc1 [Levamisole]
% Inhibition of GST ([2]; 1 mM): 0%

SMILES: CC(C)Cc1ccc(C(C)C(=O)O)cc1 (centres unmarked) [Ibuprofen]
% Inhibition of GST ([2]; 1 mM): 18.5%
% cell survival ([3]; xvi) Ibuprofen 3.06 μg/ml, alone or + Adriamycin 17 ng/ml): 100.37 ± 7.94%
% cell survival ([3]; xvi) Ibuprofen 7.92 μg/ml, alone or + Adriamycin 17 ng/ml): 96.78 ± 11.43%
% cell survival ([3]; xvi) Ibuprofen 15.72 μg/ml, alone or + Adriamycin 17 ng/ml): 95.58 ± 8.50%

SMILES: O=C(O)c1ccccc1Nc1cccc(C(F)(F)F)c1 [Flufenamic Acid]
% Inhibition of GST ([2]; 0.75 mM): 41.2%

SMILES: CC1=C(CC(=O)O)c2cc(F)ccc2/C1=C\c1ccc(S(C)(=O)=O)cc1 [Sulindac sulfone, sulindac sulfone]
% cell survival ([3]; xiii) Sulindac sulfone 4.50 μg/ml, alone or + Adriamycin 15 ng/ml): 101.87 ± 10.52%
% cell survival ([3]; xiii) Sulindac sulfone 8.90 μg/ml, alone or + Adriamycin 15 ng/ml): 102.21 ± 8.88%
% cell survival ([3]; xiii) Sulindac sulfone 19.50 μg/ml alone, or (printed 19.50 mg/ml) + Adriamycin 15 ng/ml): 76.77 ± 6.49%

SMILES: COc1cccc2c1C(=O)c1c(O)c3c(c(O)c1C2=O)C[C@@](O)(C(=O)CO)C[C@@H]3O[C@H]1C[C@H](N)[C@@H](O)[C@H](C)O1 [Epirubicin, epirubicin]
% cell survival ([5]; Epirubicin 1 ng/ml alone): 69.08 ± 3.6%

SMILES: O=c1[nH]cc(F)c(=O)[nH]1 [5-FU, 5-flurouracil]
% cell survival ([6]; iv) 5-FU 0.5 μg/ml alone): 66.18 ± 1.4%

SMILES: O.O.O.O=C([O-])[C@H]([O-])[C@@H]([O-])C(=O)[O-].O=C([O-])[C@H]([O-])[C@@H]([O-])C(=O)[O-].[K+].[K+].[Sb+3].[Sb+3] [Potassium Antimonyl Tartrate, Potassium antimonyl tartrate]
% cell survival ([6]; vii) Potassium Antimonyl Tartrate 1.5 μg/ml alone): 39.98 ± 3.3%

inhibition at 302 µM ([4]; 0.302 mM): 0%
MRP-pump inhibitory activity [4]: do not
SMILES: CN1C(C(=O)Nc2ccccn2)=C(O)c2ccccc2S1(=O)=O [Piroxicam]
enhancement of toxicity of MRP substrates [1]: negative
% Adriamycin content at 0 h ([7]; cells loaded with adriamycin 0.5 μg/ml 2 h, indomethacin 10 μg/ml, piroxicam 20 μg/ml, 0 h): 100%
% Adriamycin content at 4 h ([7]; cells loaded with adriamycin 0.5 μg/ml 2 h, indomethacin 10 μg/ml, piroxicam 20 μg/ml, 4 h): 67 ± 10%
level of adriamycin within the treated cells ([7]; during the 4 hours of the experiment): gradually decreased

SMILES: O=C(O)CCC(=O)c1ccc(-c2ccccc2)cc1 [Fenbufen]
% Inhibition of GST ([2]; 1 mM): 15.6%

SMILES: COc1cc([C@@H]2c3cc4c(cc3[C@@H](O[C@@H]3O[C@@H]5CO[C@@H](c6cccs6)O[C@H]5[C@H](O)[C@H]3O)[C@H]3COC(=O)[C@H]23)OCO4)cc(OC)c1O [Teniposide, teniposide]
% cell survival ([5]; Teniposide 6.25 ng/ml alone): 79.79 ± 0.97%
